Data reported in patent publication US20220296594A1, “POTENTIATORS OF ANTIMICROBIAL AND/OR ANTIVIRAL AGENTS” (MASSACHUSETTS INSTITUTE OF TECHNOLOGY, priority 2019, published 2022).
“Also recorded” adds a separate entry of the source.

What was measured:
[1] = system: Escherichia coli strain K-12 MG1655; assay: Time-kill experiments (antibiotic lethality with biochemical supplementation); conditions: for ciprofloxacin (CIP) lethality / gentamicin (GENT) lethality / ampicillin (AMP) lethality: time-kill, with vs without the added substance; for ciprofloxacin (CIP) lethality: 16 ng/mL CIP; for gentamicin (GENT) lethality: 48 ng/mL GENT (minimal medium); for ampicillin (AMP) lethality: 4 μg/mL AMP; for antibiotic lethality: supplementation in wildtype cells, tested antibiotics AMP, CIP and GENT
E. coli cells [2] = conditions: E. coli cells treated with the antibiotic; cited from earlier work
E. coli cells [3] = assay: Oxygen consumption rate quantification (Seahorse XFe96 Extracellular Flux Analyzer); format: cell-based, Escherichia coli; conditions: for cellular oxygen consumption rate (OCR) following antibiotic treatment: antibiotic alone, in contrast to control conditions; for cellular OCR under antibiotic treatment: 1 mM adenine or uracil supplementation, AMP, CIP or GENT treatment
E. coli cells [4] = assay: Intracellular metabolite quantification by LC-MS/MS after adenine or uracil supplementation; format: cell-based, Escherichia coli
Procedure: Intracellular metabolites were quantified on an AB SCIEX Qtrap® 5500 mass spectrometer (AB SCIEX; Framingham, Mass.), as previously described (McCloskey et al., 2018), and processed using in house scripts. […] Samples were collected 1 hr after supplementation, and aliquots with biomass equivalents to 10 mL of cell culture at OD600=0.1 were subjected to metabolite extraction using a 40:40:20 mixture of acetonitrile, methanol and LC-MS grade water. Uniformly labeled ^13C-standards were generated by growing E. coli in uniformly labeled Glucose M9 minimal media in aerated shake flasks, as previously described (McCloskey et al., 2014). Calibration mixes of standards were split across several mixes, aliquoted, and lyophilized to dryness. All samples and calibrators were equally spiked with the same internal standards. Samples were quantified using […] mass spectrometry. Calibration curves were run before and after all biological and analytical replicates. Consistency of quantification between calibration curves was checked by running a Quality Control sample composed of all biological replicates. Values reported are derived from the average of the biological triplicates, analyzed in duplicate (n=6).
Metabolite concentrations were estimated from LC-MS/MS peak heights using previously generated calibration curves. […] Metabolites in blanks with a concentration greater than 80% of that found in the biological samples were similarly excluded. Missing values were imputed by bootstrapping using the R package Amelia II (v. 1.7.4, 1,000 imputations) (Honaker et al., 2011). Remaining missing values were approximated as ½ the lower limit of quantification for the metabolite normalized to the biomass of the sample. Intracellular metabolite concentrations were calculated based on an estimated cell density of 7·10^7 CFU/mL at OD600=0.1 (FIGS. 5A-5C) and an estimated cell volume of 1.3 fL for non-stressed exponential phase E. coli cells (Milo and Phillips, 2016).

E. coli = assay: Unstressed growth in MOPS minimal medium; conditions: exogenous supplementation, no antibiotic
[5] = 1 mM supplementation, 1 hr, MOPS minimal medium

Row | Compound | ciprofloxacin (CIP) lethality [1] | gentamicin (GENT) lethality [1] | ampicillin (AMP) lethality [1] | cellular oxygen consumption rate (OCR) following antibiotic treatment (E. coli cells [3]) | antibiotic lethality [1] | other results
1 | Sc1ncnc2nc[nH]c12 [6-mercaptopurine] | decreased | increased | decreased |  |  | 
2 | CC1(C)S[C@@H]2[C@H](NC(=O)[C@H](N)c3ccccc3)C(=O)N2[C@H]1C(=O)O [AMP, ampicillin] |  |  |  | increased |  | intracellular purine nucleic acid bases (adenine, guanine) (E. coli cells [2]): depleted; intracellular pyrimidine nucleic acid bases (cytosine, thymine, uracil) (E. coli cells [2]): accumulate
3 | O=C(O)c1cn(C2CC2)c2cc(N3CCNCC3)c(F)cc2c1=O [CIP, ciprofloxacin] |  |  |  | increased |  | 
4 | CNC(C)C1CCC(N)C(OC2C(N)CC(N)C(OC3OCC(C)(O)C(NC)C3O)C2O)O1 (stereo not drawn) [GENT, gentamicin] |  |  |  | increased |  | 
5 | Nc1ncnc2nc[nH]c12 [adenine] | decreases | decreases | decreases |  | decreased | NADH/NAD+ ratio (E. coli cells [4]; [5]): unchanged; NADPH/NADP+ ratio (E. coli cells [4]; [5]): modest decrease; adenylate energy charge (E. coli cells [4]; [5]): modest decrease; intracellular fumarate (E. coli cells [4]; [5]): decreased; intracellular succinate (E. coli cells [4]; [5]): increased; intracellular adenine nucleotides (E. coli cells [4]; exogenous adenine addition): accumulate; cellular OCR under antibiotic treatment (E. coli cells [3]): significantly repressed; unstressed growth (E. coli): does not significantly alter
6 | Nc1cc[nH]c(=O)n1 [cytosine] |  |  |  |  | potentiated; also recorded: potentiating effect | 
7 | CCn1cc(C(=O)O)c(=O)c2cc(F)c(N3CCNCC3)cc21 [norfloxacin] |  |  |  |  |  | intracellular purine nucleic acid bases (adenine, guanine) (E. coli cells [2]): depleted; intracellular pyrimidine nucleic acid bases (cytosine, thymine, uracil) (E. coli cells [2]): accumulate
8 | COc1cc(Cc2cnc(N)nc2N)cc(OC)c1OC [trimethoprim] | decreases | increases | decreases |  |  | 
9 | O=c1cc[nH]c(=O)[nH]1 [uracil] | increases | increases | increases |  | potentiated; also recorded: potentiating effect | cellular OCR under antibiotic treatment (E. coli cells [3]): enhanced; unstressed growth (E. coli): does not significantly alter
10 | O=c1ccn([C@@H]2O[C@H](CO)[C@@H](O)[C@H]2O)c(=O)[nH]1 [uridine] |  |  |  |  | potentiating effect | 
